Laboratory results published in USH1923H, “Herbicidal (oxaalkyl) phenyl-substituted heterocycles” (FMC Corporation, priority 1998, dated 2000).

How the values were obtained:
[1] = system: soybean; assay: preemergence herbicidal activity on soybean; assay type: in vivo, Glycine max var. Winchester; settings: Glycine max, pre-emergence, 0.3 Kg/Ha, after 12-17 days, read-out: PREEMERGENCE HERBICIDAL ACTIVITY (% CONTROL) SOY
Method: (§1) The (oxaalkyl)phenyl-substituted heterocycles of this invention were tested for pre- and postemergence herbicidal activity using a variety of crops and weeds. The test plants included soybean (Glycine max var. Winchester),field corn (Zea mays var. Pioneer 3732), wheat (Triticum aestivum var. Lew), morningglory (Ipomea lacunosa or Ipomea hederacea), […] (Abutilon theophrasti), green foxtail (Setaria viridis), Johnsongrass (Sorghum halepense), blackgrass (Aloepecurus myosuroides), common chickweed (Stellaria media), and common cocklebur (Xanthium strumarium L.).
(§2) For preemergence testing, two disposable fiber flats (8 cm×15 cm×25 cm) for each rate of application of each candidate herbicide were filled to an approximate depth of 6.5 cm with steam-sterilized sandy loam soil. The soil was leveled and impressed with a template to provide five evenly spaced furrows 13 cm long and 0.5 cm deep in each flat. Seeds of soybean, wheat, corn, green foxtail, and johnsongrass were planted in the furrows of the first flat, and seeds of velvetleaf, morningglory, common chickweed, cocklebur, and blackgrass were planted in the furrows of the second flat. The five-row template was employed to firmly press the seeds into place. A topping soil of equal portions of sand and sandy loam soil was placed uniformly on top of each flat to a depth of approximately 0.5 cm. Flats for postemergence testing were prepared in the same manner except that they were planted 9-14 days prior to the preemergence flats and were placed in a greenhouse and watered, thus allowing the seeds to germinate and the foliage to develop.
(§3) In both pre- and postemergence tests, a stock solution of the candidate herbicide was prepared by dissolving 0.27 g of the compound in 20 mL of water/acetone (50/50) containing 0.5% v/v sorbitan monolaurate. For an application rate of 3000 g/ha of herbicide a 10 mL portion of the stock solution was diluted with water/acetone (50/50) to 45 mL.
(§4) The preemergence flats were initially subjected to a light water spray. The four flats were placed two by two along a conveyor belt (i.e., the two preemergence followed by the two postemergence flats). The conveyor belt fed under a spray nozzle mounted about ten inches above the postemergent foliage. The preemergent flats were elevated on the belt so that the soil surface was at the same level below the spray nozzle as the foliage canopy of the postemergent plants. The spray of herbicidal solution was commenced and once stabilized, the flats were passed under the spray at a speed to receive a coverage equivalent of 1000 L/ha. At this coverage the application rates are those shown in the above table for the individual herbicidal solutions. The preemergence flats were watered immediately thereafter, placed in the greenhouse and watered regularly at the soil surface. The postemergence flats were immediately placed in the green-house and not watered until 24 hours after treatment with the test solution. Thereafter they were regularly watered at ground level. After 12-17 days the plants were examined and the phytotoxicity data were recorded.
(§5) Phytotoxicity data were taken as percent control. Percent control was by a method similar to the 0 to 1 00 rating system disclosed in "Research Methods in Weed Science," 2nd ed., B. Truelove, Ed.; Southern Weed Science Society; Auburn University, Auburn, Ala., 1977.

[2] = system: wheat; assay: preemergence herbicidal activity on wheat; assay type: in vivo, Triticum aestivum var. Lew; settings: Triticum aestivum, pre-emergence, 0.3 Kg/Ha, after 12-17 days, read-out: PREEMERGENCE HERBICIDAL ACTIVITY (% CONTROL) WHT
Method: as §1, §2, §3, §4, §5

[3] = system: corn; assay: preemergence herbicidal activity on corn; assay type: in vivo, Zea mays var. Pioneer 3732; settings: Zea mays, pre-emergence, 0.3 Kg/Ha, after 12-17 days, read-out: PREEMERGENCE HERBICIDAL ACTIVITY (% CONTROL) CRN
Method: as §1, §2, §3, §4, §5

[4] = system: velvetleaf; assay: preemergence herbicidal activity on velvetleaf; assay type: in vivo; settings: Abutilon theophrasti, pre-emergence, 0.3 Kg/Ha, after 12-17 days, read-out: PREEMERGENCE HERBICIDAL ACTIVITY (% CONTROL) ABUTH
Method: as §1, §2, §3, §4, §5

[5] = system: morningglory; assay: preemergence herbicidal activity on morningglory; assay type: in vivo, Ipomea lacunosa or Ipomea hederacea; settings: Ipomoea, pre-emergence, 0.3 Kg/Ha, after 12-17 days, read-out: PREEMERGENCE HERBICIDAL ACTIVITY (% CONTROL) IPOSS
Method: as §1, §2, §3, §4, §5

[6] = system: chickweed; assay: preemergence herbicidal activity on chickweed; assay type: in vivo; settings: Stellaria media, pre-emergence, 0.3 Kg/Ha, after 12-17 days, read-out: PREEMERGENCE HERBICIDAL ACTIVITY (% CONTROL) STEME
Method: as §1, §2, §3, §4, §5

[7] = system: cocklebur; assay: preemergence herbicidal activity on cocklebur; assay type: in vivo, Xanthium strumarium L.; settings: Xanthium strumarium, pre-emergence, 0.3 Kg/Ha, after 12-17 days, read-out: PREEMERGENCE HERBICIDAL ACTIVITY (% CONTROL) XANPE
Method: as §1, §2, §3, §4, §5

[8] = system: green foxtail; assay: preemergence herbicidal activity on green foxtail; assay type: in vivo; settings: Setaria viridis, pre-emergence, 0.3 Kg/Ha, after 12-17 days, read-out: PREEMERGENCE HERBICIDAL ACTIVITY (% CONTROL) SETVI
Method: as §1, §2, §3, §4, §5

[9] = system: johnsongrass; assay: preemergence herbicidal activity on johnsongrass; assay type: in vivo; settings: Sorghum halepense, pre-emergence, 0.3 Kg/Ha, after 12-17 days, read-out: PREEMERGENCE HERBICIDAL ACTIVITY (% CONTROL) SORHA
Method: as §1, §2, §3, §4, §5

[10] = system: soybean; assay: postemergence herbicidal activity on soybean; assay type: in vivo, Glycine max var. Winchester; settings: Glycine max, post-emergence, 0.3 Kg/Ha, after 12-17 days, read-out: POSTEMERGENCE HERBICIDAL ACTIVITY (% CONTROL) SOY
Method: as §1, §2, §3, §4, §5

[11] = system: wheat; assay: postemergence herbicidal activity on wheat; assay type: in vivo, Triticum aestivum var. Lew; settings: Triticum aestivum, post-emergence, 0.3 Kg/Ha, after 12-17 days, read-out: POSTEMERGENCE HERBICIDAL ACTIVITY (% CONTROL) WHT
Method: as §1, §2, §3, §4, §5

[12] = system: corn; assay: postemergence herbicidal activity on corn; assay type: in vivo, Zea mays var. Pioneer 3732; settings: Zea mays, post-emergence, 0.3 Kg/Ha, after 12-17 days, read-out: POSTEMERGENCE HERBICIDAL ACTIVITY (% CONTROL) CRN
Method: as §1, §2, §3, §4, §5

[13] = system: velvetleaf; assay: postemergence herbicidal activity on velvetleaf; assay type: in vivo; settings: Abutilon theophrasti, post-emergence, 0.3 Kg/Ha, after 12-17 days, read-out: POSTEMERGENCE HERBICIDAL ACTIVITY (% CONTROL) ABUTH
Method: as §1, §2, §3, §4, §5

[14] = system: morningglory; assay: postemergence herbicidal activity on morningglory; assay type: in vivo, Ipomea lacunosa or Ipomea hederacea; settings: Ipomoea, post-emergence, 0.3 Kg/Ha, after 12-17 days, read-out: POSTEMERGENCE HERBICIDAL ACTIVITY (% CONTROL) IPOSS
Method: as §1, §2, §3, §4, §5

[15] = system: chickweed; assay: postemergence herbicidal activity on chickweed; assay type: in vivo; settings: Stellaria media, post-emergence, 0.3 Kg/Ha, after 12-17 days, read-out: POSTEMERGENCE HERBICIDAL ACTIVITY (% CONTROL) STEME
Method: as §1, §2, §3, §4, §5

[16] = system: cocklebur; assay: postemergence herbicidal activity on cocklebur; assay type: in vivo, Xanthium strumarium L.; settings: Xanthium strumarium, post-emergence, 0.3 Kg/Ha, after 12-17 days, read-out: POSTEMERGENCE HERBICIDAL ACTIVITY (% CONTROL) XANPE
Method: as §1, §2, §3, §4, §5

[17] = system: green foxtail; assay: postemergence herbicidal activity on green foxtail; assay type: in vivo; settings: Setaria viridis, post-emergence, 0.3 Kg/Ha, after 12-17 days, read-out: POSTEMERGENCE HERBICIDAL ACTIVITY (% CONTROL) SETVI
Method: as §1, §2, §3, §4, §5

[18] = system: johnsongrass; assay: postemergence herbicidal activity on johnsongrass; assay type: in vivo; settings: Sorghum halepense, post-emergence, 0.3 Kg/Ha, after 12-17 days, read-out: POSTEMERGENCE HERBICIDAL ACTIVITY (% CONTROL) SORHA
Method: as §1, §2, §3, §4, §5

[19] = system: blackgrass; assay: preemergence herbicidal activity on blackgrass; assay type: in vivo, Aloepecurus myosuroides; settings: Alopecurus myosuroides, pre-emergence, 0.3 Kg/Ha, after 12-17 days, read-out: PREEMERGENCE HERBICIDAL ACTIVITY (% CONTROL) ALOMY
Method: as §1, §2, §3, §4, §5

[20] = system: blackgrass; assay: postemergence herbicidal activity on blackgrass; assay type: in vivo, Aloepecurus myosuroides; settings: Alopecurus myosuroides, post-emergence, 0.3 Kg/Ha, after 12-17 days, read-out: POSTEMERGENCE HERBICIDAL ACTIVITY (% CONTROL) ALOMY
Method: as §1, §2, §3, §4, §5

Structure (SMILES) | activity at 300 g/ha [1] [%] | activity at 300 g/ha [2] [%] | activity at 300 g/ha [3] [%] | activity at 300 g/ha [4] [%] | activity at 300 g/ha [5] [%] | activity at 300 g/ha [6] [%] | activity at 300 g/ha [7] [%] | activity at 300 g/ha [8] [%] | activity at 300 g/ha [9] [%] | activity at 300 g/ha [10] [%] | activity at 300 g/ha [11] [%] | activity at 300 g/ha [12] [%] | activity at 300 g/ha [13] [%] | activity at 300 g/ha [14] [%] | activity at 300 g/ha [15] [%] | activity at 300 g/ha [16] [%] | activity at 300 g/ha [17] [%] | activity at 300 g/ha [18] [%] | activity at 300 g/ha [19] [%] | activity at 300 g/ha [20] [%]
Cn1nc(-c2cc(CC(Cl)C(C)(C)O)c(Cl)cc2F)c(Cl)c1OC(F)F (stereo not drawn) [Compound 3] | 60 | 30 | 40 | 100 | 100 | 100 | 100 | 100 | 75 | 95 | 40 | 70 | 100 | 100 | 100 | 100 | 100 | 60 |  | 
Cc1nn(-c2cc(CC(Cl)CO)c(Cl)cc2F)c(=O)n1C(F)F (stereo not drawn) [Compound 24] | 30 | 50 | 70 | 100 | 100 |  | 95 | 100 | 65 | 80 | 30 | 80 | 100 | 100 | 10 | 100 | 80 | 80 | 10 | 30
CC(=O)OC(C)(C)C(Cl)Cc1cc(-n2c(=O)cc(C(F)(F)F)n(C)c2=O)c(F)cc1Cl (stereo not drawn) [Compound 16, 2-CHLORO-3-METHYL-1-[2-CHLORO-4-FLUORO-5-[1-METHYL-6-TRIFLUOROMETHYL-2,4(1H,3H)-PYRIMIDINDION-3-YL]PHENYL]BUTAN-3-YL ACETATE] | 100 | 70 | 90 | 100 | 100 | 100 | 100 | 100 | 100 | 95 | 60 | 90 | 100 | 90 | 100 | 100 | 100 | 100 |  | 100
Cn1c(C(F)(F)F)cc(=O)n(-c2cc(CC(Cl)C(C)(C)O)c(Cl)cc2F)c1=O (stereo not drawn) [Compound 1, 2-CHLORO-3-METHYL-1-[2-CHLORO-4-FLUORO-5-[1-METHYL-6-TRIFLUOROMETHYL-2,4(1H,3H)-PYRIMIDINDION-3-YL]PHENYL]BUTAN-3-OL] | 100 | 80 | 95 | 100 | 100 | 100 | 95 | 100 | 95 | 100 | 90 | 100 | 100 | 100 | 100 | 100 | 100 | 100 | 80 | 80
CC(=O)OC(C)(C)C(Cl)Cc1cc(-n2nc(C)n(C(F)F)c2=O)c(F)cc1Cl (stereo not drawn) [Compound 17] | 70 | 50 | 85 | 100 | 100 | 95 | 80 | 80 | 100 | 80 | 50 | 90 | 100 | 100 | 100 | 60 | 100 | 100 |  | 80
CC(=O)OC(C)(C)C(Cl)Cc1cc(-c2nn(C)c(OC(F)F)c2Cl)c(F)cc1Cl (stereo not drawn) [Compound 18] | 70 | 20 | 20 | 100 | 100 | 100 | 60 | 100 | 80 | 80 | 40 | 75 | 100 | 100 | 100 | 90 | 100 | 80 |  | 80
